Measurements from patent US20240425496A1, “AZETIDINYL PYRIMIDINES AND USES THEREOF” (Aerie Pharmaceuticals, Inc., priority 2021, published 2024).

How the values were obtained:
TYK2 = TYK2 (Homo sapiens (Human), UniProt P29597); test: JAK kinase assay (KINASE-GLO luminescent), TYK2 enzyme; assay type: biochemical; details: TYK2 enzyme 10 nM, Abl peptide substrate
Description: (§1) All compounds were initially prepared as 10 mM stocks in anhydrous dimethylsulfoxide (DMSO). […] Test compounds were then serially diluted 1:5 in DMSO for an 11-point concentration response and further diluted in the assay buffer bringing all compound concentrations to a final range of 100 μM to 10 μM in 2.5% DMSO. […] The reaction was initiated by the addition of 10 μL of 4× stock solution ATP (2 μM). Reactions were thoroughly mixed manually, covered, and allowed to incubate at room temperature for 75 min. Protein kinase activity was quantitated using Promega's KINASE-GLO™ luminescent Kinase Assay Kit according to the manufacturer's directions. ATP concentrations remaining in Test wells following the termination of the enzymatic reaction were compared against control wells containing equivalent amounts of DMSO containing no inhibitor (CTRL). […] Percent of Control (POC) values were determined for each concentration of compound tested according to the equation: […]
(§2) IC50 values were calculated using the following 4-parameter logistic curve-fitting algorithm:
(§3) Compounds were prepared in the exact same manner as described in the ROCK Kinase Assay with the exception to the substrate and enzyme. […] All other steps and solutions remain identical to the ROCK Kinase Assay above.

JAK1 = JAK1 (Homo sapiens (Human), UniProt P23458); test: JAK kinase assay (KINASE-GLO luminescent), JAK1 enzyme; assay type: biochemical; details: JAK1 enzyme 10 nM, Abl peptide substrate
JAK1, sequence (P23458 whole entry, species assumed): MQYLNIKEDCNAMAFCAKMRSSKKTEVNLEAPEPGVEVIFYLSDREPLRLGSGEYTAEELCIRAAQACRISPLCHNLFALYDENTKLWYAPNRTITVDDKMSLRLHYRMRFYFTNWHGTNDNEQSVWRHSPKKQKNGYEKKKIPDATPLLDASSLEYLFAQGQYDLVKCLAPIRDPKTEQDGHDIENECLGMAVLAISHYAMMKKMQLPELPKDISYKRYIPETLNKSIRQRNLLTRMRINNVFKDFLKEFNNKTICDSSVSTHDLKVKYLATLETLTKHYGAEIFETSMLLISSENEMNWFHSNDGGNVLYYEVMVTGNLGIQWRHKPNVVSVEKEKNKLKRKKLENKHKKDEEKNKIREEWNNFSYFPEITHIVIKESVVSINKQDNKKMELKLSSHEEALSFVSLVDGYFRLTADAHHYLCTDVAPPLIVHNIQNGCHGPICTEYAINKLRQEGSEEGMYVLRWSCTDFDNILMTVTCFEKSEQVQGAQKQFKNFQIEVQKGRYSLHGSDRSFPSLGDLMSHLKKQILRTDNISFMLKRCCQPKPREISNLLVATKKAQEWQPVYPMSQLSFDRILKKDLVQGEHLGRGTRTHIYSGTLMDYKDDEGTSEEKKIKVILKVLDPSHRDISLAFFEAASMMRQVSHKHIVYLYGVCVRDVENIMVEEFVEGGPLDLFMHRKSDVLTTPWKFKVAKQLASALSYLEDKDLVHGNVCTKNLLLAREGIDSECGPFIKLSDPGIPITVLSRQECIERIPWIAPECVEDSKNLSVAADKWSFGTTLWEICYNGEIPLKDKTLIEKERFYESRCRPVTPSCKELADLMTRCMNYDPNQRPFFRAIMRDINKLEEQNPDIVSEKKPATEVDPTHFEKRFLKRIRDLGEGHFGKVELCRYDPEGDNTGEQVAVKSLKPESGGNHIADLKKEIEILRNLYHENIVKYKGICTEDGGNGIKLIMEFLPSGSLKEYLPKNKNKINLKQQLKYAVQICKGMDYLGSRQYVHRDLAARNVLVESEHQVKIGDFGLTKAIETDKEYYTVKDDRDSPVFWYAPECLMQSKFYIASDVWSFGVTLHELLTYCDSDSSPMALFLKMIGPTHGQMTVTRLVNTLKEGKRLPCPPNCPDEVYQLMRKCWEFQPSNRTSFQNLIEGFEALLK
Description: as §1, §2, §3

TYK2, sequence (P29597 whole entry, species assumed): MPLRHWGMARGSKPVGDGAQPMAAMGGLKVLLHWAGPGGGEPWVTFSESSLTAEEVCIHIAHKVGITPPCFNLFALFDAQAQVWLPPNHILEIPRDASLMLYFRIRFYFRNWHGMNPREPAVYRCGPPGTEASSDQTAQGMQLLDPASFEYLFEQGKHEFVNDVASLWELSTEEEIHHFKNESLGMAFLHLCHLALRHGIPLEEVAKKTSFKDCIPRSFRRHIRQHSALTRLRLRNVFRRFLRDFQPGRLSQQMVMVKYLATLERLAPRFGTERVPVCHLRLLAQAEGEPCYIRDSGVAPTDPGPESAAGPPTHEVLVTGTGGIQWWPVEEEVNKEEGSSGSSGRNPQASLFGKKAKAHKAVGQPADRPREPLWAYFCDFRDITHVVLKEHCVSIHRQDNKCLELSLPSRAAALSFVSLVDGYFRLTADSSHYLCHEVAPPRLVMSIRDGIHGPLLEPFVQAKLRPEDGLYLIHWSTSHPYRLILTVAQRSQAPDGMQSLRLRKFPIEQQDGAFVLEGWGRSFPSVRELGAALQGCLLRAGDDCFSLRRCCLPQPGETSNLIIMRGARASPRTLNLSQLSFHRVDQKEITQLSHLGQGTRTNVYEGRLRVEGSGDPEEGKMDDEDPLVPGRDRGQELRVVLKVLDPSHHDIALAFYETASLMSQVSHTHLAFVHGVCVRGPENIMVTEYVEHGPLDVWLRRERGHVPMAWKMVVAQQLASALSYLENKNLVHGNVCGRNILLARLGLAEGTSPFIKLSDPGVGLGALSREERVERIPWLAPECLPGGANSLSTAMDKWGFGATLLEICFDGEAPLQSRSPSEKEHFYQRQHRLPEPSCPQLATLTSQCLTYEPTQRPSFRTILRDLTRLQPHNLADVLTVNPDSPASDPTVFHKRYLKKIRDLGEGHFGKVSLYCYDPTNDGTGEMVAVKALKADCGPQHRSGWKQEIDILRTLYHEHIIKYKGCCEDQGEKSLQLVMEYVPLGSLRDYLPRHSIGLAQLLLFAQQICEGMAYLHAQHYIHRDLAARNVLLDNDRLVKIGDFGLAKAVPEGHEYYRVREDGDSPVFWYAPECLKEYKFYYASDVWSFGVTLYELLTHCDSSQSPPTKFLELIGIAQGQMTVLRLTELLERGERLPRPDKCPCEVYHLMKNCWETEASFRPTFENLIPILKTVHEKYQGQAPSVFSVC

SMILES	IC50 (TYK2)	IC50 (JAK1)
Cc1cnc(Nc2ccc3c(c2)CN(C)C3)nc1N1CC(CC#N)(N2CCC3(CC2)CC3)C1 [E114]	< 20 nM	< 20 nM
Cc1cc(Nc2ncc(C)c(N3CC(O)(CC#N)C3)n2)sn1 [E114a]	< 10 nM	< 20 nM
Cc1cnc(Nc2ccc(N3CCN(C)CC3)c(C(F)(F)F)c2)nc1N1CC2(C1)CC2(F)F [E115]	< 100 nM	< 250 nM
Cc1cc(Nc2ncc(C)c(N3CC(CC#N)(N4CCCN5CCCC5C4)C3)n2)sn1 (stereo not drawn) [E115a]	< 50 nM	< 200 nM
Cc1cnc(Nc2cccc(CN(C)C)c2)nc1N1CC(CC#N)(N2CCCC3(C2)CC3(F)F)C1 (stereo not drawn) [E116]	< 10 nM	< 10 nM
Cc1cc(Nc2ncc(C)c(N3CC(CCF)(N4CCCCC4)C3)n2)sn1 [E116a]	< 10 nM	< 50 nM
Cc1cc(Nc2ncc(C)c(N3CC(N)(CC#N)C3)n2)sn1 [E117-AA]	< 50 nM	< 100 nM
Cc1cc(Nc2ncc(C)c(N3C4CC3CN(CCC#N)C4)n2)sn1 [E117-AD]	< 1000 nM	< 1000 nM
Cc1cc(Nc2ncc(C)c(N3CC(CCF)(N4CCN5C[C@H](F)C[C@H]5C4)C3)n2)sn1 [E117-A]	< 10 nM	< 50 nM
Cc1cc(Nc2ncc(C)c(N3CC(CC#N)(N4CC5NCCOC5C4)C3)n2)sn1 (stereo not drawn) [E117-B]	< 100 nM	< 50 nM
Cc1cc(Nc2ncc(C)c(N3CC(CC#N)(N4CCC(F)(F)CC4)C3)n2)sn1 [E117-E]	< 5 nM	< 5 nM
Cc1cc(Nc2ncc(C)c(N3CC(CC#N)(N4CCN5CC6(CC6)C[C@H]5C4)C3)n2)sn1 [E117-G]	< 5 nM	< 5 nM
Cc1cc(Nc2ncc(C)c(N3CC(CC#N)(N4CCN(CCCF)CC4)C3)n2)sn1 [E117-J]	< 5 nM	< 5 nM
C#CC1(O)CN(c2nc(Nc3cc(C)ns3)ncc2C)C1 [E117-N]	< 5 nM	< 10 nM
Cc1cc(Nc2ncc(C)c(N3CC4(C3)CC4(F)F)n2)sn1 [E117-P]	< 5 nM	< 10 nM
Cc1cc(Nc2ncc(C)c(N3CC(CC#N)(N4CCN(C)C(CCF)C4)C3)n2)sn1 (stereo not drawn) [E117-R]	< 5 nM	< 10 nM
Cc1cnc(Nc2cc(CN(C)C)ns2)nc1N1CC(CC#N)(N2CCN3CCCC[C@H]3C2)C1 [E117-S]	< 10 nM	< 25 nM
Cc1cc(Nc2ncc(C)c(N3CC(CCC#N)C3)n2)sn1 [E117-T]	< 10 nM	< 25 nM
Cc1cc(Nc2ncc(C)c(N3CC(CC(F)F)C3)n2)sn1 [E117-U]	< 10 nM	< 25 nM

SMILES	IC50 (TYK2)	IC50 (JAK1)
Cc1cc(Nc2ncc(C)c(N3C4CC3CN(CC#N)C4)n2)sn1 [E117-V]	< 50 nM	< 50 nM
Cc1cc(Nc2ncc(C)c(N3CC(=CC#N)C3)n2)sn1 [E117-X]	< 75 nM	< 75 nM
Cc1cc(Nc2ncc(C)c(N3CC(CC#N)(CN4CCN5C[C@H](F)C[C@H]5C4)C3)n2)sn1 [E117-Y]	< 50 nM	< 100 nM
Cc1cnc(Nc2cccnc2)nc1N1CC(CC#N)(N2CCN(C)CC2)C1 [E117]	< 20 nM	< 50 nM
Cc1cc(Nc2ncc(C)c(N3CC(CC#N)(N4CCN5C[C@H](C)C[C@H]5C4)C3)n2)sn1 [E117a]	< 10 nM	< 50 nM
Cc1cnc(Nc2ccc(N3CCOCC3)cc2)nc1N1CC(CC#N)(N2CCN(C)CC2)C1 [E118]	< 10 nM	< 50 nM
Cc1cnc(Nc2ccc3c(c2)CN(C)C3)nc1N1CC(CC#N)(N2CCC(F)(F)CC2)C1 [E119-A]	< 10 nM	< 10 nM
Cc1cnc(Nc2ccc(N3CCOCC3)c(F)c2)nc1N1CC(CC#N)(N2CCCCC2)C1 [E119]	< 10 nM	< 25 nM
Cc1cnc(Nc2cnn(C)c2)nc1N1CC(CC#N)(N2CCN3C[C@H](F)C[C@H]3C2)C1 [E152a, 2-(3-((7R,8aS)-7-fluorohexahydropyrrolo[1,2-a]pyrazin-2(1H)-yl)-1-(5-methyl-2-((1-methyl-1H-pyrazol-4-yl)amino)pyrimidin-4-yl)azetidin-3-yl)acetonitrile]	< 10 nM	< 10 nM
[2H]C([2H])([2H])n1cc(Nc2ncc(C)c(N3CC(CC#N)(N4CCN5C[C@H](F)C[C@H]5C4)C3)n2)cn1 [E156a]	< 10 nM	< 10 nM
Cc1cnc(Nc2cnn(C)c2)nc1N1CC(CC#N)(N2CCN3CC(F)(F)C[C@H]3C2)C1 [E157a]	< 10 nM	< 10 nM
Cc1cnc(Nc2cnn(C)c2)nc1N1CC(CC#N)(N2CCN3CCCC[C@@H]3C2)C1 [E159a]	< 100 nM	< 120 nM
Cc1cnc(Nc2cnn(C)c2)nc1N1CC(CC#N)(N2CCC3C(CC2)C3(F)F)C1 (stereo not drawn) [E160a]	< 10 nM	< 10 nM
Cc1cnc(Nc2cnn(C)c2)nc1N1CC(CC#N)(N2CC3(C2)CC3(F)F)C1 [E161a]	< 20 nM	< 20 nM
Cc1cnc(Nc2cnn(C)c2)nc1N1CC(CC#N)(N2CCN3CCC[C@H]3C2)C1 [E162a]	< 50 nM	< 50 nM
Cn1cc(Nc2ncc(Cl)c(N3CC(CC#N)(N4CCN5C[C@H](F)C[C@H]5C4)C3)n2)cn1 [E163a]	< 10 nM	< 10 nM
Cc1cnc(Nc2cnn(C)c2)nc1N1CC(CC#N)(N2CCn3cccc3C2)C1 [E164a]	< 10 nM	< 10 nM
Cc1cnc(Nc2cnn(C)c2)nc1N1CC(CC(F)F)(C2CC2)C1 [E165a]	< 10 nM	< 10 nM

More lines, now with the values ahead:

IC50 (TYK2)	IC50 (JAK1)	SMILES
< 200 nM	< 1000 nM	COC(=O)CC1(N2CCN3C[C@H](F)C[C@H]3C2)CN(c2nc(Nc3cnn(C)c3)ncc2C)C1 [E166a]
< 50 nM	< 50 nM	Cc1cnc(Nc2cnn(C)c2)nc1N1CC(CCO)(N2CCN3C[C@H](F)C[C@H]3C2)C1 [E167a]
< 20 nM	< 20 nM	Cc1cnc(Nc2cnn(C)c2)nc1N1CC(CCC#N)(N2CCN3C[C@H](F)C[C@H]3C2)C1 [E168a]
< 120 nM	< 250 nM	Cc1cnc(Nc2cnn(C)c2)nc1N1CC(N2CCN3C[C@H](F)C[C@H]3C2)C1 [E169a]
< 100 nM	< 50 nM	CCC1(N2CCN3C[C@H](F)C[C@H]3C2)CN(c2nc(Nc3cnn(C)c3)ncc2C)C1 [E170a]
< 10 nM	< 10 nM	Cc1cnc(Nc2cnn(C)c2)nc1N1CC(CC#N)(N2CCN3CCCC[C@H]3C2)C1 [E171a]
< 100 nM	< 100 nM	Cc1cnc(Nc2cnn(C)c2)nc1N1CC(CC#N)(N2CC3(C2)CC(F)(F)CO3)C1 [E172a]
< 10 nM	< 10 nM	Cc1cnc(Nc2cnn(C)c2)nc1N1CC(CC#N)(N2CCN3CC(C)(C)C[C@H]3C2)C1 [E173a]
< 200 nM	< 100 nM	Cc1cnc(Nc2cnn(C)c2)nc1N1CC(=CC#N)C1 [E174a]
< 120 nM	< 100 nM	Cc1cnc(Nc2cnn(C)c2)nc1N1CC(O)(CF)C1 [E175-A]
< 200 nM	< 200 nM	Cc1cnc(Nc2cnn(C)c2)nc1N1CC(O)(CC2CC2)C1 [E175-B]
< 10 nM	< 10 nM	Cc1cnc(Nc2cnn(C3CC3)c2)nc1N1CC(CC#N)(N2CCN3C[C@H](F)C[C@H]3C2)C1 [E175-C]
< 120 nM	< 120 nM	COCCN1CCN(C2(CC#N)CN(c3nc(Nc4cnn(CCOC)c4)ncc3C)C2)CC1 [E175-D]
< 200 nM	< 200 nM	COCCN1CCN(C2(CC#N)CN(c3nc(Nc4cnn(CCOC)c4)ncc3C)C2)CC1 [E175-E]
< 50 nM	< 50 nM	Cc1cnc(Nc2cnn(C)c2)nc1N1CC(CC#N)(N2CCN3C[C@H](C)C[C@H]3C2)C1 [E175a]
< 10 nM	< 50 nM	Cc1cnc(Nc2ccc(N3CCN(C)CC3)cc2)nc1N1CC(CC#N)(N(C)C2CC2)C1 [E213]
< 10 nM	< 10 nM	Cc1cnc(Nc2ccc3c(c2)CN(C)C3)nc1N1CC(CC(F)F)(C2CC2)C1 [E216-A]
< 10 nM	< 10 nM	Cc1cnc(Nc2ccc(S(C)(=O)=O)cc2)nc1N1CC(CC(F)F)(C2CC2)C1 [E216-B]
< 10 nM	< 10 nM	Cc1cnc(Nc2ccc3c(c2)CN(C)C3)nc1N1CC(CC#N)(N(C)C2CC2)C1 [E216-C]
< 10 nM	< 10 nM	Cc1cnc(Nc2ccc3c(c2)CN(C)C3)nc1N1CC(CC#N)(N2CCC(F)CC2)C1 [E216-E]
< 10 nM	< 20 nM	Cc1cnc(Nc2ccccc2)nc1N1CC(CC#N)(N2CCN3CCCC[C@H]3C2)C1 [E216-F]
< 10 nM	< 10 nM	Cc1cnc(Nc2ccc3c(c2)CN(C)C3)nc1N1CC(CC#N)(N2CCC3(CC2)COC3)C1 [E216-G]
< 10 nM	< 50 nM	Cc1cnc(Nc2ccc(N3CCOCC3)c(F)c2)nc1N1CC(CCC#N)C1 [E216-K]
< 20 nM	< 50 nM	Cc1cnc(Nc2ccc(C3COC3)cc2)nc1N1CC(CC#N)(N2CCN(C)CC2)C1 [E216-L]
< 30 nM	< 70 nM	Cc1cnc(Nc2ccccc2)nc1N1CC(CC#N)(N2CCN(C)CC2)C1 [E216-N]
< 30 nM	< 120 nM	Cc1cnc(Nc2ccc3c(c2)B(O)OC3)nc1N1CC(CC#N)(N2CCN3C[C@H](F)C[C@H]3C2)C1 [E216-O]
